Experimental data as given in ChEMBL document CHEMBL1159103, “Discovery of biaryl inhibitors of H+/K+ ATPase” (Bioorg Med Chem Lett, 2010).

Experiment: Inhibition of H(+)/K(+) ATPase

pIC50 | Compound
5.7 | Cc1cccc(C)c1-c1ccc(O)c(-c2nc(C)c(C)[nH]2)c1
5.7 | Cc1cccc(C)c1-c1ccc(OCC(N)=O)c(-c2nc(C)c(C)[nH]2)c1
4.4 | Cc1cccc(C)c1-c1cccc(-c2nc3ccccc3[nH]2)c1
4.4 | Cc1cccc(C)c1-c1cccc(N2CCN(C)CC2)c1
4.9 | CCCn1c(-c2cc(-c3c(C)cccc3C)ccc2OC)nc(C)c1C
4 | Cc1nc(-c2cccc(C(=O)Nc3ccccc3)c2)[nH]c1C
5.6 | CCOc1ccc(-c2c(C)cccc2C)cc1-c1nc(C)c(C)[nH]1
4.5 | Cc1cccc(C)c1-c1cc(-c2nc(C)c(C)[nH]2)cs1
4.3 | CCCn1ccnc1-c1cccc(-c2c(C)cccc2C)c1
4.8 | Cc1cscc1-c1cccc(-c2nc(C)c(C)[nH]2)c1
5.3 | Cc1cccc(C)c1-c1ccc(OCc2ccccc2)c(-c2nc(C)c(C)[nH]2)c1
4.7 | Cc1nc(-c2cccc(-c3ccccc3)c2)[nH]c1C
5 | Cc1cccc(C)c1-c1ccc(OC(F)F)c(-c2nc(C)c(C)[nH]2)c1
4.8 | Cc1cccc(C)c1-c1cccc(-c2cn(C)c(C)n2)c1
4.9 | Cc1ccc(-c2nc(C)c(C)[nH]2)cc1-c1c(C)cccc1C
< 4 | Cc1cccc(C)c1-c1cc(-c2nc(C)c(C)[nH]2)ccc1-c1ccncc1
4.4 | Cc1nc(-c2cccc(/C=C/c3ccccc3)c2)[nH]c1C
4.8 | CCc1nc(-c2cccc(-c3c(C)cccc3C)c2)[nH]c1CC
4.6 | COc1cc(-c2c(C)cccc2C)cc(-c2nc(C)c(C)[nH]2)c1OC
6.1 | COc1ccc(-c2c(C)cccc2C)cc1-c1nc(C)c(C)[nH]1
4.9 | Cc1cccc(C)c1-c1ccc(-c2nc(C)c(C)[nH]2)o1
< 4 | Cc1cccc(C)c1-c1cc(-c2nc(C)c(C)[nH]2)co1

pIC50 | Compound
5.1 | Cc1ccccc1-c1cccc(-c2nc(C)c(C)[nH]2)c1
4.4 | Cc1cccc(C)c1-c1ccc(-c2nc(C)c(C)[nH]2)cc1
5.9 | COC(=O)COc1ccc(-c2c(C)cccc2C)cc1-c1nc(C)c(C)[nH]1
4.9 | Cc1cccc(C)c1Nc1cccc(-c2nc(C)c(C)[nH]2)c1
4.6 | Cc1cccc(C)c1-c1cccc(-c2nc(C)c(C)n2C)c1
5.5 | COc1c(-c2c(C)cccc2C)cc2c(c1-c1nc(C)c(C)[nH]1)OCC2
4.4 | Cc1cccc(C)c1-c1cccc(-c2cncn2C)c1
4.3 | Cc1nc(-c2cccc(CCc3ccccc3)c2)[nH]c1C
4.1 | Cc1cccc(C)c1-c1ccc(-c2nc(C)c(C)[nH]2)s1
4.3 | CNCc1cccc(-c2c(C)cccc2C)c1
4.3 | Cc1cccc(C)c1CNc1cccc(-c2nc(C)c(C)[nH]2)c1
4.9 | COc1ccc(-c2nc(C)c(C)[nH]2)cc1-c1c(C)cccc1C
4.5 | Cc1cccc(C)c1-c1cccc(-c2cc(N)ccn2)c1
5.2 | Cc1cccc(C)c1-c1cccc(-c2nccn2C)c1
5.1 | CCc1cccc(CC)c1-c1cccc(-c2nc(C)c(C)[nH]2)c1
4.5 | Cc1cccc(C)c1-c1cccc(-c2ncc[nH]2)c1
5.4 | COc1c(-c2c(C)cccc2C)cc2ccoc2c1-c1nc(C)c(C)[nH]1
4.8 | COc1ncccc1-c1cc(-c2nc(C)c(C)[nH]2)cc(-c2c(C)cccc2C)c1
< 4 | COc1c(-c2nc(C)c(C)[nH]2)cccc1-c1c(C)cccc1C
4.2 | Cc1nc(-c2ccccc2-c2ccccc2)[nH]c1C
5.2 | Cc1cccc(C)c1-c1cccc(-c2nc(C)c(C)[nH]2)c1
